This is an account of results in patent US9867879B2 (Vanderbilt University, priority 2015, dated 2018).

A word on the IC50: it is the midpoint of a concentration-inhibition curve. One may read the solubility as the dissolved amount per volume that the medium holds. A low value points to little dissolved substance.

The subject of data set [1] is heme biosynthetic pathway. The experiment in a line: Accumulation of heme precursor molecules. It is filed as cell-based, S. aureus. Conditions: data not shown. The source says: Because ALA is the first committed precursor molecule in the heme biosynthetic pathway, if ALA is contacted with bacteria, the bacteria will generated enhanced amounts of all of the heme precursor molecules downstream of ALA.

In the next data set the test system is HssRS. In words: microbe, parasite or virus in culture. As to conditions: for EC50: Staphylococcus aureus, 6 h; for Efficacy: percent activation of HssRS compared to 1 at 50 μM, error one standard deviation; for HssRS activation in single point screen: 50 μM, fraction of activation relative to 1, cut-off 0.05, in words; for drop in efficacy: compared to 1. Format: cell-based, S. aureus. The protocol: Previously reported strains were used.^11 Cultures grown overnight in 5 ml TSB with 10 μg mL^−1 chloramphenicol for 15-18 h were subcultured 1:100 into 0.5 mL TSB with 10 μg mL^−1 chloramphenicol containing compound and incubated at 37° C., 180 rpm for 6 h. Cells were washed and lysed as previously described. 200 μL of a 200 μM catechol solution in 100 mM potassium phosphate (pH 8.0) was added to 20 μL of lysate and the oxidation of catechol was followed by monitoring absorbance at 375 nm for 10 min. Samples were normalized to protein concentration as determined by BCA assay (Pierce).
The above XylE procedure was followed using different concentrations of compound. The data were then entered into Graphpad Prism 6 and fit to a curve to determine EC50 values.
HssRS activation. The library was screened for activation of the heme stress response as an indicator for activation of heme biosynthesis in S. aureus. We began by screening at the single point concentration of 50 μM using a previously described reporter assay (FIG. 4).^11 In this assay, Newman harboring a plasmid with the hrt promoter fused to xylE, a gene encoding a catechol oxidase, is treated with compound for six hours, the bacteria lysed, and the oxidation of catechol by XylE quantified by spectrophotometry. An increase in absorbance due to the oxidation of catechol indicates elevated levels of xylE transcription and hrt promoter activity. Results are expressed as the fraction of activation of HssRS by the compound compared to 1. […] With reference to FIG. 8, activation of HssRS by 3a and 3b at 50 μM. Activity is presented as the fraction of activation by the indicated derivative relative to 1 at 50 μM.

The subject of data set [2] is wild type S. aureus strain Newman. The experiment in a line: Growth inhibition IC50, Newman aerobic. It is filed as cell-based. As to conditions: 95% confidence interval, >60 μM considered nontoxic. The protocol: (§1) Cultures of wild type S. aureus strain Newman and ΔmenB^14 were grown in aeration tubes aerobically at 37° C. with shaking for 15-18 h. Anaerobic cultures were prepared by growing bacteria at 37° C. without shaking in an anaerobic chamber for 15-18 h. Bacteria from each condition were subcultured 1:100 into TSB containing various concentrations of compound in a 96 well plate. Aerobic wild type and ΔmenB plates are incubated aerobically at 37° C. with shaking while anaerobic plates were grown in an anaerobic chamber (Coy) at 37° C. without shaking. The absorbance at 600 nm (OD600) was determined after 9 h of growth and the fraction of growth at each compound concentration is determined by dividing the OD600 by the vehicle control (DMSO) value. IC50s were calculated using Graphpad Prism 6 and errors are reported as 95% confidence intervals.
(§2) Wild type S. aureus strain Newman was grown in an anaerobic chamber in appropriate media to ensure exclusion of terminal electron acceptors sufficient to force the bacteria to ferment. […] The arbitrary cut off point for toxicity of 60 μM was chosen as many of the compounds were not entirely soluble above this concentration.

For data set [3] the test system is unchanged. In words: Growth inhibition IC50, Newman anaerobic (fermenting). Format: cell-based. Conditions: for IC50: Staphylococcus aureus, NEWMAN, 9 h of growth, anaerobic chamber, 95% confidence interval, >60 μM considered nontoxic; for toxicity to fermenting / anaerobic S. aureus (in words): anaerobic Newman and ΔmenB, from IC50 data. As to the method:
as §1, §2

The subject of another data set is ΔmenB. The experiment in a line: Growth inhibition IC50, ΔmenB. It is filed as cell-based, S. aureus. Conditions: Staphylococcus aureus, 9 h, read-out: IC50 ΔmenB. The protocol: as §1, with “intervals. […]” for “intervals.”
Data set [4] concerns S. aureus. As to conditions: earlier method, low cell density; cited from earlier work.
Data set [5] deals with S. aureus. In words: Heme adaptation assay. It is filed as cell-based. As to conditions: subculture into 20 μM heme. As to the method: Overnight cultures of S. aureus were subcultured into 500 μL TSB containing compound in 1.5 mL tubes and incubated at 37° C. with shaking for 15 h. Bacteria from the compound treated cultures were then subcultured 1:100 into 100 μL TSB containing heme and incubated at 37° C. with shaking for 8 h. Growth was monitored by reading the OD600 on a Biotek microplate reader at the defined time intervals.
Finally, the top activators were assayed for their ability to preadapt S. aureus to heme as an indication that they can activate HssRS outside the context of a reporter assay. Pretreatment of cultures with a compound that induces HrtAB expression through activation of HssRS at subtoxic concentrations allows the bacteria to survive and grow when subcultured into a toxic concentration of heme. Pretreatment with 4 μM heme, 40 μM 1, and vehicle with 40 μM of each of the top activators were compared (excluding 2d because of toxicity). All derivatives were able to preadapt S. aureus to a toxic concentration of heme (20 μM) as well as 4 μM heme and 40 μM 1 (FIG. 5). The discrepancy between XylE assay and heme adaptation activity is likely due to the length of treatment with compound (6 h vs. 15 h).

A short description of a further data set: Solubility limit. It is filed as physicochemical.
For another data set, the system named is S. aureus infection. As to conditions: previously reported; cited from earlier work.
Where [6] appears, read: Staphylococcus aureus, NEWMAN, 9 h, read-out: IC50 Newman aerobic, 9 h of growth, aerobic.

≈ marks a conversion by molar mass, not a printed value. Entries after “also recorded” stand apart in the source; their conditions may differ. Where two headings read alike, the source gives them in different places.

For `NCC(=O)CCC(=O)O` [ALA, reference compound], the “accumulation of PBG” value in data set [1] was “results in accumulation of PBG”.

As to `Oc1c(-c2cc(-c3ccco3)[nH]n2)ccc2ccccc12` [Compound 1], the EC50 in the data set on HssRS was 11.6 µM; in the data set with HssRS (read-out: pEC50 (converted)) it was 12.6 µM. Moreover, in the data set with HssRS, the Efficacy is 100%. For the same compound, the concentration for half-maximal inhibition (IC50) in [2] (setting [6]) is > 60 µM; in data set [3], 13.5 µM; in the data set on ΔmenB, 1.66 µM. Also, in [3], the “toxicity to fermenting / anaerobic S. aureus (in words)” value was “intermediate between the two”. In addition, the “anaerobic toxicity (previously reported)” value in the data set with S. aureus [4] is reported as “toxic to S. aureus growing anaerobically”.

For `O=C(Nc1ccccc1-c1cc(-c2ccco2)[nH]n1)c1cc(Cl)cc(Cl)c1` [Compound 1i, 3,5-dichloro-N-(2-(5-(furan-2-yl)-1H-pyrazol-3-yl)phenyl)benzamide], the results for the half-maximal inhibitory concentration (IC50) (in [2] (setting [6]); in [3]; in the data set with ΔmenB) were > 60 µM, 19.6 µM and 8.69 µM, respectively. Also, the “preadaptation to heme toxicity” value in the data set with S. aureus [5] (pretreatment 40 μM compound) is “indistinguishable from vehicle”.

In the data set with HssRS, `Oc1ccccc1-c1cc(-c2cccs2)[nH]n1` [Compound 2a, 2-(5-(thiophen-2-yl)-1H-pyrazol-3-yl)phenol] had an Efficacy of 17.0 ± 2.9%. Also, the IC50 (in [2] (setting [6]); in [3]; in the data set with ΔmenB) was > 60 µM throughout. Moreover, the solubility in the data set “Solubility limit” is ~80 µM (≈ 19.4 µg/mL).

In the case of `Oc1ccccc1-c1cc(-c2ccccc2O)[nH]n1` [Compound 2d, 2,2′-(1H-pyrazole-3,5-diyl)diphenol], the EC50 in the data set with HssRS is 5.81 µM; in the data set with HssRS (read-out: pEC50 (converted)), 5.75 µM. In addition, the 50% inhibitory concentration (IC50) in data set [2] (setting [6]) came to 42.2 µM; in [2] (read-out: IC50 Newman aerobic, 9 h of growth, aerobic), 42.5 µM; in data set [3] it was 15.8 µM; with ΔmenB, 9.33 µM. Besides, in data set [3], the “toxicity to fermenting / anaerobic S. aureus (in words)” value is “anaerobic toxicity similar to 1; also recorded: exhibits both activities”. The “preadaptation to heme toxicity” value with S. aureus [5] (pretreatment 20 μM compound) is recorded as “excellent preadaptation to heme toxicity”.

`Oc1ccccc1-c1cc(-c2ccccc2F)[nH]n1` [Compound 2e]: in the data set with HssRS, the “HssRS activation in single point screen” value is recorded as “comparable to 1a in activity”, the EC50 worked out at 10.7 µM, the drop in efficacy is reported as ~70% and the Efficacy was 35.7 ± 10.1%. Also, the EC50 with HssRS (read-out: pEC50 (converted)) is 10.7 µM. The half-maximal inhibitory concentration (IC50) in data set [2] (setting [6]) is > 60 µM. Moreover, in [3], the IC50 is > 60 µM and the “toxicity to fermenting / anaerobic S. aureus (in words)” value is “eliminates this toxicity; also recorded: not bacteriostatic under the conditions tested here; also recorded: removes toxicity”. Further, in the data set on ΔmenB, the IC50 is > 60 µM. Besides, in the data set with S. aureus [4], the “anaerobic toxicity (previously reported)” value is “anaerobic toxicity”. Further, the “efficacy in mouse model of S. aureus infection” value in the data set on S. aureus infection is listed as “efficacy in a mouse model of S. aureus infection”.

As for `Oc1ccccc1-c1cc(-c2cc(F)ccc2F)[nH]n1` [Compound 2f, 2-(5-(2,5-difluorophenyl)-1H-pyrazol-3-yl)phenol], in the data set on HssRS, the “HssRS activation in single point screen” value is “comparable to 1a in activity”, the EC50 worked out at 13.6 µM, the drop in efficacy is ~70% and the Efficacy was determined as 30.1 ± 8.0%. The EC50 with HssRS (read-out: pEC50 (converted)) is 12.6 µM. For the same compound, the IC50 in data set [2] (setting [6]) was > 60 µM. In [3], the IC50 was > 60 µM and the “toxicity to fermenting / anaerobic S. aureus (in words)” value was “eliminates this toxicity”. For the same compound, the IC50 in the data set on ΔmenB was > 60 µM.

`Oc1ccccc1-c1cc(-c2ccncc2)[nH]n1` [Compound 2i]: the IC50 (in [2] (setting [6]); in data set [3]; in the data set with ΔmenB) was > 60 µM throughout. Further, the “preadaptation to heme toxicity” value with S. aureus [5] (pretreatment 40 μM compound) is given as “indistinguishable from vehicle”.

Turning to `Oc1ccccc1-c1cc[nH]n1` [Compound 2j, 2-(1H-pyrazol-3-yl)phenol], the “HssRS activation in single point screen” value in the data set with HssRS was “eliminates activity compared to 1 and 1a”. Besides, the IC50 (in data set [2] (setting [6]); in data set [3]; in the data set on ΔmenB) was > 60 µM each time. In addition, the “toxicity to fermenting / anaerobic S. aureus (in words)” value in data set [3] was “nontoxic under all conditions”.

Regarding `CCCCCc1cc(-c2ccccc2O)n[nH]1` [Compound 2o, 2-(5-pentyl-1H-pyrazol-3-yl)phenol], the 50% inhibitory concentration (IC50) came out at 48.6 µM in data set [2] (setting [6]), 11.6 µM in data set [3] and 13.2 µM in the data set on ΔmenB. Besides, the “toxicity to fermenting / anaerobic S. aureus (in words)” value in [3] is reported as “comparably toxic to 1”. The “preadaptation to heme toxicity” value in the data set on S. aureus [5] (pretreatment 40 μM compound) is given as “indistinguishable from vehicle”.

Consider `COc1ccccc1-c1cc(-c2ccccc2)[nH]n1` [Compound 3a, 3-(2-methoxyphenyl)-5-phenyl-1H-pyrazole], for which, in the data set with HssRS (summary statements, concentration not fixed), the “HssRS activation (in words)” value is “removes HssRS activity”. Besides, the results for the IC50 (in data set [2] (setting [6]); in data set [3]; in the data set on ΔmenB) were > 60 µM, 20.8 µM and 24.9 µM, respectively. The “toxicity to fermenting / anaerobic S. aureus (in words)” value in data set [3] was “maintaining toxicity”. Besides, in the data set with S. aureus [5] (pretreatment 40 μM compound), the “preadaptation to heme toxicity” value is “indistinguishable from vehicle”.

`Cn1nc(-c2ccco2)cc1-c1ccc2ccccc2c1O` [Compound 4a, 2-(3-(furan-2-yl)-1-methyl-1H-pyrazol-5-yl)naphthalen-1-ol]: the “HssRS activation in single point screen” value with HssRS was “complete loss of activity”. Besides, the values for the 50% inhibitory concentration (IC50) (in [2] (setting [6]); in [3]; in the data set on ΔmenB) were > 60 µM, 26.5 µM and 15.7 µM, respectively. Moreover, in data set [3], the “toxicity to fermenting / anaerobic S. aureus (in words)” value is “maintains toxicity comparable to the parent molecule”. For the same compound, in data set [3] (fermenting wildtype S. aureus and ΔmenB), the “toxicity relative to 4b” value was “approximately five times less toxic”.

For `Cn1nc(-c2ccc3ccccc3c2O)cc1-c1ccco1` [Compound 4b, 2-(5-(furan-2-yl)-1-methyl-1H-pyrazol-3-yl)naphthalen-1-ol], the “HssRS activation in single point screen” value in the data set with HssRS is “complete loss of activity”. For the same compound, the half-maximal inhibitory concentration (IC50) in [2] (setting [6]) is > 60 µM; in data set [3], 4.27 µM; with ΔmenB it was 3.3 µM.
